pEC50, pIC50: −log10 of the molar value.
Tests used:
β2c/2i = assay: Cell-Based Proteasome Activity/Selectivity Assay (Ramos cells), substrate (KQL)2Rh110; conditions: highest concentration tested 20 μM
Text: (§1) Cell-Based Proteasome Activity/Selectivity Assay
(§2) The Cell-Based Proteasome subunit activity/selectivity assay was a panel of 5 fluorogenic assays that independently measured the activity of β5c or β5i (chymotrypsin-like activity), β2c/2i (trypsin-like), and β1c or β1i (caspase-like) protease activity associated with the proteasome complex in cultured cells. Specifically, the following substrates were used for respective subunit activities: β1i: (PAL)2Rh110, β1c: (LLE)2 Rh110, β2c/2i: (KQL)2Rh110, β5c: (WLA)2Rh110, β5i: (ANW)2Rh110. The following procedure was followed:
(§3) Cell preparation: Plated 25 μl of Ramos cells (2×10^6/ml in DPBS) into half area plate (PerkinElmer Cat 6005569) to final 5×10^4 cells/well. Added 0.5 μl of 100×4-fold serial diluted test compounds or DMSO to each well. Highest concentration of compound tested was 20 μM, thus compound serial dilution started from […]. Incubated for 30 minutes at 37° C. Then equilibrated at room temperature for 15 minutes. Added 25 μl of 2× reaction mix consisting of 0.025% digitonin, 20 μM of each substrates and 0.5M sucrose in DPBS. Shaked for one minute @ 700 rpm. Incubated for 120 min at room temperature. Then read the plates with an Envision multilabel plate reader (PerkinElmer) with 500 nm excitation/519 nm emission.

β5c = target: T1, β5c (Homo sapiens, UniProt P20618+P28074); assay: Cell-Based Proteasome Activity/Selectivity Assay (Ramos cells), substrate (WLA)2Rh110; conditions: highest concentration tested 20 μM
T1 construct: protease activity associated with the proteasome complex in cultured cells; endogenous in cells; host or cells: Ramos cells
Text: as §1, §2, §3

β5i = target: T2, β5i (Homo sapiens, UniProt P20618+P28062); assay: Cell-Based Proteasome Activity/Selectivity Assay (Ramos cells), substrate (ANW)2Rh110; conditions: highest concentration tested 20 μM, read-out: Ic50 ramos:ac-(anw)2-r110
T2 construct: protease activity associated with the proteasome complex in cultured cells; endogenous in cells; host or cells: Ramos cells
Text: as §1, §2, §3

β1c = target: T3, β1c (Homo sapiens, UniProt P28072+Q99436); assay: Cell-Based Proteasome Activity/Selectivity Assay (Ramos cells), substrate (LLE)2 Rh110; conditions: highest concentration tested 20 μM
T3 construct: protease activity associated with the proteasome complex in cultured cells; endogenous in cells; host or cells: Ramos cells
Text: as §1, §2, §3

[1] = tested on: IP10 level in PBMCs stimulated with CpG Type A; assay: PBMC IP-10 Assay; format: cell-based; conditions: CpG Type A 2.5 μM
Protocol: PBMCs were isolated from whole blood as follows: Blood was collected in a sterile environment in heparinized tubes. Blood was diluted with an equal volume PBS/2% FCS and 30 ml of this mixture was added to ACCUSPIN tubes containing 15 ml Histopaque-1077 already centrifuged at 800 g for 30 seconds and warmed up at room temperature. The tubes were then centrifuged at 800 g for 20 minutes at room temperature with no brake. The mononuclear band, just above the polyethylene frit, was removed by Pasteur pipet. These mononuclear cells were washed three times with sterile PBS, counted, and resuspended in RPMI 1640 supplemented with 10% heat inactivated fetal calf serum, 10 mM HEPES, 1 mM sodium pyruvate, penicillin (50 U/ml), streptomycin (50 μg/ml) and glutamine (2 mM) to approximately 1.5×10^6/ml. Approximately 2×10^5 cells/well were plated in 96 well tissue culture plates (BD Falcon 353072), and preincubated 60 mi/37° C. with a titration of compounds, in a final concentration of 1% DMSO. Cells were then stimulated with CpG Type A (Invivogen, Cat #tlrl-2216; ODN 2216) at a final concentration of 2.5 μM. Cells were incubated overnight, and supernatants were removed. PBMC viability of cells remaining in the well was measured with ATPlite luminescence assay (Perkin-Elmer) per the manufacturer's instructions. Luminescence was measured on the Perkin-Elmer Envision, using the luminescence filter. IP10 level was measured with CXCL10/IP10 AlphaLISA kit (Perkin-Elmer) per the manufacturer's instructions, except halving all volumes. Fluorescence was measured on the Envision Multilabel plate reader, using the AlphaScreen standard settings.

β1i = target: T4, β1i (Homo sapiens, UniProt P28065+P40306); assay: Cell-Based Proteasome Activity/Selectivity Assay (Ramos cells), substrate (PAL)2Rh110; conditions: highest concentration tested 20 μM
T4 construct: protease activity associated with the proteasome complex in cultured cells; endogenous in cells; host or cells: Ramos cells
Text: as §1, §2, §3

Row | pIC50 (β2c/2i) | pIC50 (β5c) | pIC50 (β5i) | pIC50 (β1c) | pIC50 (β1i) | Compound | pEC50 [1]
1 | < 4.70 | 5.86 | 7.54 | < 4.70 | 6.22 | COc1ccc(C[C@H](NC(=O)[C@H](C)NS(=O)(=O)c2ccccc2)C(=O)N[C@@H](Cc2ccccc2)C(=O)C(=O)NCc2ccccc2)cc1 [Example 39, (S)-3-[(S)-2-((S)-2-Benzenesulfonylamino-propionylamino)-3-(4-methoxy-phenyl)-propionylamino]-N-benzyl-2-oxo-4-phenyl-butyramide] | 5.64
2 | < 4.70 | 5.21 | 6.28 | < 4.70 | 5.56 | C[C@H](NC(=O)OCc1ccccc1)C(=O)NC(CC(F)(F)F)C(=O)N[C@@H](Cc1ccccc1)C(=O)C(=O)NCc1ccccc1 (stereo partly drawn) [Example 57, {(S)-1-[1-((S)-1-Benzyl-2-benzylcarbamoyl-2-oxo-ethylcarbamoyl)-3,3,3-trifluoro-propylcarbamoyl]-ethyl}-carbamic acid benzyl ester] | 5.30
3 | < 4.70 | 6.02 | 7.52 | < 4.70 | 6.32 | C[C@H](NC(=O)OCc1ccccc1)C(=O)N[C@@H](Cc1ccncc1)C(=O)N[C@@H](Cc1ccccc1)C(=O)C(=O)NCc1ccccc1 [Example 58, {(S)-1-[(S)-1-((S)-1-Benzyl-2-benzylcarbamoyl-2-oxo-ethylcarbamoyl)-2-pyridin-4-yl-ethylcarbamoyl]-ethyl}-carbamic acid benzyl ester] | 5.88
4 | < 4.70 | 5.51 | 6.94 | < 4.70 | 6.06 | C[C@H](NC(=O)OCc1ccccc1)C(=O)NC(CC1CCOCC1)C(=O)N[C@@H](Cc1ccccc1)C(=O)C(=O)NCc1ccccc1 (stereo partly drawn) [Example 56, {(S)-1-[1-((S)-1-Benzyl-2-benzylcarbamoyl-2-oxo-ethylcarbamoyl)-2-(tetrahydro-pyran-4-yl)-ethylcarbamoyl]-ethyl}-carbamic acid benzyl ester] | 5.49
5 | < 4.70 | 5.86 | 7.47 | 5.20 | 6.15 | Cc1cc(C(=O)N[C@@H](C)C(=O)N[C@@H](Cc2c[nH]c3ccccc23)C(=O)N[C@@H](Cc2ccccc2)C(=O)C(=O)NCc2ccccc2)no1 [Example 47, 5-Methyl-isoxazole-3-carboxylic acid {(S)-1-[(S)-1-((S)-1-benzyl-2-benzylcarbamoyl-2-oxo-ethylcarbamoyl)-2-(1H-indol-3-yl)-ethylcarbamoyl]-ethyl}-amide] | 5.64
6 | < 4.70 | 5.39 | 5.92 | < 4.70 | < 4.70 | C[C@H](NC(=O)OCc1ccccc1)C(=O)N[C@@H](Cc1c[nH]c2ccccc12)C(=O)N[C@@H](Cc1ccccc1)C(=O)C(=O)N(C)Cc1ccccc1 [Example 38, {(S)-1-[(S)-1-[(S)-1-Benzyl-2-(benzyl-methyl-carbamoyl)-2-oxo-ethylcarbamoyl]-2-(1H-indol-3-yl)-ethylcarbamoyl]-ethyl}-carbamic acid benzyl ester] | 4.99
7 | < 4.70 | 5.35 | 6.63 | < 4.70 | 5.97 | CC(C)C[C@H](NC(=O)[C@H](C)NC(=O)c1ccnn1C)C(=O)N[C@@H](Cc1ccccc1)C(=O)C(=O)NCc1ccccc1 [Example 37, 2-Methyl-2H-pyrazole-3-carboxylic acid {(S)-1-[(S)-1-((S)-1-benzyl-2-benzylcarbamoyl-2-oxo-ethylcarbamoyl)-3-methyl-butylcarbamoyl]-ethyl}-amide] | 5.29

Continued, molecule first:

Row | Compound | pIC50 (β2c/2i) | pIC50 (β5c) | pIC50 (β5i) | pIC50 (β1c) | pIC50 (β1i) | pEC50 [1]
8 | COc1ccc(C[C@H](NC(=O)C2(NC(=O)C3Cc4ccccc4C3)CC2)C(=O)N[C@@H](Cc2ccccc2)C(=O)C(=O)NCc2ccccc2)cc1 [Example 27, Indan-2-carboxylic acid {1-[(S)-1-((S)-1-benzyl-2-benzylcarbamoyl-2-oxo-ethylcarbamoyl)-2-(4-methoxy-phenyl)-ethylcarbamoyl]-cyclopropyl}-amide] | < 4.70 | 5.34 | 7.40 | 4.89 | 5.30 | 5.31
9 | CCCC[C@H](NC(=O)[C@H](CCS(C)(=O)=O)NC(=O)[C@H](C)NC(=O)C1=C(C)c2ccccc2C1)C(=O)C(=O)NCc1ccccc1 [Example 15, 3-Methyl-1H-indene-2-carboxylic acid {(S)-1-[(S)-1-((S)-1-benzylaminooxalyl-pentylcarbamoyl)-3-methanesulfonyl-propylcarbamoyl]-ethyl}-amide] | < 4.70 | 5.45 | 7.00 | 5.07 | 6.68 | 5.72
10 | CCCC[C@H](NC(=O)[C@H](Cc1ccc(OC)cc1)NC(=O)[C@H](C)NC(=O)CN1CCOCC1)C(=O)C(=O)NC [Example 14, (S)-3-{(S)-3-(4-Methoxy-phenyl)-2-[(S)-2-(2-morpholin-4-yl-acetylamino)-propionylamino]-propionylamino}-2-oxo-heptanoic acid methylamide] | < 4.70 | 4.78 | 6.16 | < 4.70 | 6.37 | 5.29
11 | C[C@H](NC(=O)OCc1ccccc1)C(=O)N[C@@H](Cc1c[nH]c2ccccc12)C(=O)N[C@@H](Cc1ccccc1)C(=O)C(=O)NCc1ccccn1 [Example 34, {(S)-1-[(S)-1-{(S)-1-Benzyl-2-oxo-2-[(pyridin-2-ylmethyl)-carbamoyl]-ethylcarbamoyl}-2-(1H-indol-3-yl)-ethylcarbamoyl]-ethyl}-carbamic acid benzyl ester] | < 4.70 | 5.96 | 8.00 | 4.87 | 6.23 | 5.93
12 | COc1ccc(C[C@H](NC(=O)[C@@H](NC(=O)C2Cc3ccccc3C2)C2CC2)C(=O)N[C@@H](Cc2ccccc2)C(=O)C(=O)NCc2ccccc2)cc1 [Example 26, Indan-2-carboxylic acid {(S)-[(S)-1-((S)-1-benzyl-2-benzylcarbamoyl-2-oxo-ethylcarbamoyl)-2-(4-methoxy-phenyl)-ethylcarbamoyl]-cyclopropyl-methyl}-amide] | 6.42 | 7.82 | 8.40 | 5.62 | 6.74 | 6.69
13 | CCCC[C@H](NC(=O)[C@H](Cc1c[nH]c2ccccc12)NC(=O)[C@H](C)NC(=O)c1cc(C)on1)C(=O)C(=O)NCc1ccccc1 [Example 4, 5-Methyl-isoxazole-3-carboxylic acid {(S)-1-[(S)-1-((S)-1-benzylaminooxalyl-pentylcarbamoyl)-2-(1H-indol-3-yl)-ethylcarbamoyl]-ethyl}-amide] | < 4.70 | 6.12 | 7.08 | 5.24 | 7.04 | 5.41
14 | COc1ccc(C[C@H](NC(=O)C2(NC(=O)OCc3ccccc3)CC2)C(=O)N[C@@H](Cc2ccccc2)C(=O)C(=O)NCc2ccccc2)cc1 [Example 28, {1-[(S)-1-((S)-1-Benzyl-2-benzylcarbamoyl-2-oxo-ethylcarbamoyl)-2-(4-methoxy-phenyl)-ethylcarbamoyl]-cyclopropyl}-carbamic acid benzyl ester] | < 4.70 | 5.29 | 6.53 | < 4.70 | 5.32 | 5.55
